In patent US12503438B2, “Compounds for the treatment of kinase-dependent disorders” (Exelixis, Inc., priority 2019, dated 2025):

What follows are compounds tested against KDR (Homo sapiens, UniProt P35968) (assay: KDR autophosphorylation ELISA in HUVEC cells). Conditions: cellular activity, VEGF165-stimulated, phospho-KDR ELISA.
Type: cell-based
Design: endogenous in cells; host or cells: HUVEC (Lonza #C2519A)
Description: Human umbilical vein endothelial cells or HUVEC (Lonza #C2519A) were seeded at 2×10^4 cells/well onto 96-well plates (Corning #3904), in EGM-2 growth medium (Lonza #CC-3162) containing 1% Penicillin Streptomycin (Thermo Fisher #15140-122). HUVEC cells were incubated at 37° C., 5% CO2 for 24 h and then starved for 24 h in serum-free EBM-2 basal medium (Lonza #CC-3156) containing 1% Penicillin Streptomycin. Test compounds were serially diluted to produce an 8-point dose curve in fresh serum-free medium to a final concentration of 0.3% DMSO (vehicle) and added to the cells and incubated for 1 h. Cells were then stimulated with 100 ng/mL recombinant human VEGF165 (R&D Systems #293-VE-500) for 5 min, washed with cold PBS, and immediately lysed with 130 μL of cold 1× lysis buffer [20 mM Tris, 137 mM sodium chloride, 2 mM EDTA, 10% glycerol, 1% NP-40 alternative, 1 mM activated sodium orthovanadate, 1 mM PefaBloc SC (Sigma-Aldrich #11429868001), protease/phosphatase inhibitor tablet (Thermo Fisher #A32959)]. Lysates were collected and 100 μL/well added into the human phospho-KDR DuoSet IC ELISA (R&D Systems #DYC1766-2). Assay was performed according to manufacturer's instructions and sample phospho-KDR concentrations were extrapolated using human phospho-KDR control (R&D Systems #841421) as a standard. Positive control wells (100% activity) contained VEGF165-stimulated, DMSO-treated cell lysates. Negative control wells (0% activity) contained non-stimulated cell lysates. IC50 values were calculated by nonlinear regression analysis using a 4-parameter logistic curve fit in ActivityBase XE (IDBS).

Chain of KDR (P35968 20-1356): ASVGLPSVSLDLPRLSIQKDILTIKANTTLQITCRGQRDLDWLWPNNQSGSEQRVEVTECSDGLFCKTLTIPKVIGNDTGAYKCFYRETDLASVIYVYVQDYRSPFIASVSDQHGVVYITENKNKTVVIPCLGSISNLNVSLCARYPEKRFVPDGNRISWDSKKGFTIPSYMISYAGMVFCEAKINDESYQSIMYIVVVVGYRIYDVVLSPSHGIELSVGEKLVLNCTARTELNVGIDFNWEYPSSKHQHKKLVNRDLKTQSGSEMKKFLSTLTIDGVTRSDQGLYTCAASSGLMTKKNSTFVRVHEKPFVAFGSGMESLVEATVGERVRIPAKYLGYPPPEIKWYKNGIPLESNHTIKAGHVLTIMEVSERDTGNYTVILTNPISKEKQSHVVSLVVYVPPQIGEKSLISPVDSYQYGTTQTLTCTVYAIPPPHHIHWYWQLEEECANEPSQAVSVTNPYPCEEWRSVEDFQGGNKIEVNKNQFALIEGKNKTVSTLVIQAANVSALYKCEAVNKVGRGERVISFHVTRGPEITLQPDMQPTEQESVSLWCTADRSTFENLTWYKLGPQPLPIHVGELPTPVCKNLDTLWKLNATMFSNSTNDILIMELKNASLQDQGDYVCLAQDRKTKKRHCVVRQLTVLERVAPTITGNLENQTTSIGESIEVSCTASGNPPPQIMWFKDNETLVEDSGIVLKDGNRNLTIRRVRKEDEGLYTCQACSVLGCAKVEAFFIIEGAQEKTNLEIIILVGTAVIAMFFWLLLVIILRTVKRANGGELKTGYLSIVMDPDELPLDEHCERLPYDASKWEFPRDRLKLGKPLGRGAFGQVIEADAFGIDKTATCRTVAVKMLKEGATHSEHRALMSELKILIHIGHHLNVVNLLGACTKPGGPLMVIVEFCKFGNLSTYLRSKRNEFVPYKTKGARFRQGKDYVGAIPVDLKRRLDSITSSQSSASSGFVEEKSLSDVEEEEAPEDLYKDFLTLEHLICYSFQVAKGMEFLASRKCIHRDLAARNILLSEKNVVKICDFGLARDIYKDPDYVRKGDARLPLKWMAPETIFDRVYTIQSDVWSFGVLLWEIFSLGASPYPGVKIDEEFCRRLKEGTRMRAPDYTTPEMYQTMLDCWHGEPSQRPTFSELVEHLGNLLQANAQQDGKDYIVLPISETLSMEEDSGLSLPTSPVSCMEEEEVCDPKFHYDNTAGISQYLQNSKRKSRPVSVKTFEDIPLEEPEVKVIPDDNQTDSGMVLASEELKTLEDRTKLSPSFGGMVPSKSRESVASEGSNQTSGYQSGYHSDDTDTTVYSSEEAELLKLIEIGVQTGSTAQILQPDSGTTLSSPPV

IC50 [nM]	SMILES
10 to 100	COCCn1cc(-c2ccc3c(Oc4ccc(NC(=O)C5(C(=O)Nc6ccc(F)cc6)CC5)cc4)ccnc3c2)cn1 [Compound 10, 1-N′-(4-Fluorophenyl)-1-N-[4-[7-[1-(2-methoxyethyl)pyrazol-4-yl]quinolin-4-yl]oxyphenyl]cyclopropane-1,1-dicarboxamide]
≤ 10	Cn1cc(-c2ccc3c(Oc4ccc(NC(=O)C5(C(=O)Nc6ccc(F)cc6)CC5)cc4)ccnc3c2)cn1 [Compound 11, 1-N′-(4-Fluorophenyl)-1-N-[4-[7-(1-methylpyrazol-4-yl)quinolin-4-yl]oxyphenyl]cyclopropane-1,1-dicarboxamide]
10 to 100	O=C(Nc1ccc(F)cc1)C1(C(=O)Nc2ccc(Oc3ccnc4cc(-c5cnn(C(F)(F)F)c5)ccc34)cc2)CC1 [Compound 12, 1-N′-(4-Fluorophenyl)-1-N-[4-[7-[1-(trifluoromethyl)pyrazol-4-yl]quinolin-4-yl]oxyphenyl]cyclopropane-1,1-dicarboxamide]
≤ 10	O=C(Nc1ccc(F)cc1)C1(C(=O)Nc2ccc(Oc3ccnc4cc(-c5cnn(C(F)F)c5)ccc34)cc2)CC1 [Compound 13, 1-N-[4-[7-[1-(Difluoromethyl)pyrazol-4-yl]quinolin-4-yl]oxyphenyl]-1-N′-(4-fluorophenyl)cyclopropane-1,1-dicarboxamide]
10 to 100	O=C(Nc1ccc(F)cc1)C1(C(=O)Nc2ccc(Oc3ccnc4cc(-c5cnn(CCF)c5)ccc34)cc2)CC1 [Compound 14, 1-N-[4-[7-[1-(2-Fluoroethyl)pyrazol-4-yl]quinolin-4-yl]oxyphenyl]-1-N′-(4-fluorophenyl)cyclopropane-1,1-dicarboxamide]
10 to 100	O=C(Nc1ccc(F)cc1)C1(C(=O)Nc2ccc(Oc3ccnc4cc(-c5cnn(CC(F)F)c5)ccc34)cc2)CC1 [Compound 15, 1-N-[4-[7-[1-(2,2-Difluoroethyl)pyrazol-4-yl]quinolin-4-yl]oxyphenyl]-1-N′-(4-fluorophenyl)cyclopropane-1,1-dicarboxamide]
≤ 10	O=C(Nc1ccc(F)cc1)C1(C(=O)Nc2ccc(Oc3ccnc4cc(-c5cnn(CC(F)(F)F)c5)ccc34)cc2)CC1 [Compound 16, 1-N′-(4-Fluorophenyl)-1-N-[4-[7-[1-(2,2,2-trifluoroethyl)pyrazol-4-yl]quinolin-4-yl]oxyphenyl]cyclopropane-1,1-dicarboxamide]
≤ 10	Cn1ccc(-c2ccc3c(Oc4ccc(NC(=O)C5(C(=O)Nc6ccc(F)cc6)CC5)cc4)ccnc3c2)n1 [Compound 17, 1-N′-(4-Fluorophenyl)-1-N-[4-[7-(1-methylpyrazol-3-yl)quinolin-4-yl]oxyphenyl]cyclopropane-1,1-dicarboxamide]
≤ 10	O=C(Nc1ccc(F)cc1)C1(C(=O)Nc2ccc(Oc3ccnc4cc(-c5cnn(CCO)c5)ccc34)cc2)CC1 [Compound 18, 1-N′-(4-Fluorophenyl)-1-N-[4-[7-[1-(2-hydroxyethyl)pyrazol-4-yl]quinolin-4-yl]oxyphenyl]cyclopropane-1,1-dicarboxamide]
10 to 100	O=C(Nc1ccc(F)cc1)C1(C(=O)Nc2ccc(Oc3ccnc4cc(-c5cnn(CCN6CCOCC6)c5)ccc34)cc2)CC1 [Compound 19, 1-N′-(4-Fluorophenyl)-1-N-[4-[7-[1-(2-morpholin-4-ylethyl)pyrazol-4-yl]quinolin-4-yl]oxyphenyl]cyclopropane-1,1-dicarboxamide]
≤ 10	CCn1cc(-c2ccc3c(Oc4ccc(NC(=O)C5(C(=O)Nc6ccc(F)cc6)CC5)cc4)ccnc3c2)cn1 [Compound 20, 1-N-[4-[7-(1-Ethylpyrazol-4-yl)quinolin-4-yl]oxyphenyl]-1-N′-(4-fluorophenyl)cyclopropane-1,1-dicarboxamide]
≤ 10	CC(C)n1cc(-c2ccc3c(Oc4ccc(NC(=O)C5(C(=O)Nc6ccc(F)cc6)CC5)cc4)ccnc3c2)cn1 [Compound 21, 1-N′-(4-Fluorophenyl)-1-N-[4-[7-(1-propan-2-ylpyrazol-4-yl)quinolin-4-yl]oxyphenyl]cyclopropane-1,1-dicarboxamide]
10 to 100	O=C(Nc1ccc(F)cc1)C1(C(=O)Nc2ccc(Oc3ccnc4cc(-c5cnn(C6CC6)c5)ccc34)cc2)CC1 [Compound 22, 1-N-[4-[7-(1-Cyclopropylpyrazol-4-yl)quinolin-4-yl]oxyphenyl]-1-N′-(4-fluorophenyl)cyclopropane-1,1-dicarboxamide]
10 to 100	CC(C)(C)n1cc(-c2ccc3c(Oc4ccc(NC(=O)C5(C(=O)Nc6ccc(F)cc6)CC5)cc4)ccnc3c2)cn1 [Compound 23, 1-N-[4-[7-(1-tert-Butylpyrazol-4-yl)quinolin-4-yl]oxyphenyl]-1-N′-(4-fluorophenyl)cyclopropane-1,1-dicarboxamide]
≤ 10	O=C(Nc1ccc(F)cc1)C1(C(=O)Nc2ccc(Oc3ccnc4cc(-c5cnn(C6COC6)c5)ccc34)cc2)CC1 [Compound 24, 1-N′-(4-Fluorophenyl)-1-N-[4-[7-[1-(oxetan-3-yl)pyrazol-4-yl]quinolin-4-yl]oxyphenyl]cyclopropane-1,1-dicarboxamide]
≤ 10	O=C(Nc1ccc(F)cc1)C1(C(=O)Nc2ccc(Oc3ccnc4cc(-c5cccnc5)ccc34)cc2)CC1 [Compound 25, 1-N′-(4-Fluorophenyl)-1-N-[4-(7-pyridin-3-ylquinolin-4-yl)oxyphenyl]cyclopropane-1,1-dicarboxamide]
≤ 10	O=C(Nc1ccc(F)cc1)C1(C(=O)Nc2ccc(Oc3ccnc4cc(-c5ccncc5)ccc34)cc2)CC1 [Compound 26, 1-N′-(4-Fluorophenyl)-1-N-[4-(7-pyridin-4-ylquinolin-4-yl)oxyphenyl]cyclopropane-1,1-dicarboxamide]
10 to 100	O=C(Nc1ccc(F)cc1)C1(C(=O)Nc2ccc(Oc3ccnc4cc(-c5cncnc5)ccc34)cc2)CC1 [Compound 27, 1-N′-(4-Fluorophenyl)-1-N-[4-(7-pyrimidin-5-ylquinolin-4-yl)oxyphenyl]cyclopropane-1,1-dicarboxamide]
10 to 100	O=C(Nc1ccc(F)cc1)C1(C(=O)Nc2ccc(Oc3ccnc4cc(-c5ccnnc5)ccc34)cc2)CC1 [Compound 28, 1-N′-(4-Fluorophenyl)-1-N-[4-(7-pyridazin-4-ylquinolin-4-yl)oxyphenyl]cyclopropane-1,1-dicarboxamide]
10 to 100	O=C(Nc1ccc(F)cc1)C1(C(=O)Nc2ccc(Oc3ccnc4cc(-c5cnn6c5CCC6)ccc34)cc2)CC1 [Compound 29, 1-N-[4-[7-(5,6-Dihydro-4H-pyrrolo[1,2-b]pyrazol-3-yl)quinolin-4-yl]oxyphenyl]-1-N′-(4-fluorophenyl)cyclopropane-1,1-dicarboxamide]
10 to 100	Cc1cc(-c2ccc3c(Oc4ccc(NC(=O)C5(C(=O)Nc6ccc(F)cc6)CC5)cc4)ccnc3c2)ccn1 [Compound 30, 1-N′-(4-Fluorophenyl)-1-N-[4-[7-(2-methylpyridin-4-yl)quinolin-4-yl]oxyphenyl]cyclopropane-1,1-dicarboxamide]
10 to 100	COc1cc(-c2ccc3c(Oc4ccc(NC(=O)C5(C(=O)Nc6ccc(F)cc6)CC5)cc4)ccnc3c2)ccn1 [Compound 31, 1-N′-(4-Fluorophenyl)-1-N-[4-[7-(2-methoxypyridin-4-yl)quinolin-4-yl]oxyphenyl]cyclopropane-1,1-dicarboxamide]
10 to 100	O=C(Nc1ccc(F)cc1)C1(C(=O)Nc2ccc(Oc3ccnc4cc(-c5ccnc(F)c5)ccc34)cc2)CC1 [Compound 33, 1-N′-(4-Fluorophenyl)-1-N-[4-[7-(2-fluoropyridin-4-yl)quinolin-4-yl]oxyphenyl]cyclopropane-1,1-dicarboxamide]
10 to 100	N#Cc1cc(-c2ccc3c(Oc4ccc(NC(=O)C5(C(=O)Nc6ccc(F)cc6)CC5)cc4)ccnc3c2)ccn1 [Compound 34, 1-N-[4-[7-(2-Cyanopyridin-4-yl)quinolin-4-yl]oxyphenyl]-1-N′-(4-fluorophenyl)cyclopropane-1,1-dicarboxamide]
10 to 100	Nc1ccc(-c2ccc3c(Oc4ccc(NC(=O)C5(C(=O)Nc6ccc(F)cc6)CC5)cc4)ccnc3c2)cn1 [Compound 38, 1-N-[4-[7-(6-Aminopyridin-3-yl)quinolin-4-yl]oxyphenyl]-1-N′-(4-fluorophenyl)cyclopropane-1,1-dicarboxamide]
10 to 100	O=C(Nc1ccc(F)cc1)C1(C(=O)Nc2ccc(Oc3ccnc4cc(-c5cnc6[nH]ncc6c5)ccc34)cc2)CC1 [Compound 39, 1-N′-(4-Fluorophenyl)-1-N-[4-[7-(1H-pyrazolo[3,4-b]pyridin-5-yl)quinolin-4-yl]oxyphenyl]cyclopropane-1,1-dicarboxamide]
10 to 100	N#Cc1cncc(-c2ccc3c(Oc4ccc(NC(=O)C5(C(=O)Nc6ccc(F)cc6)CC5)cc4)ccnc3c2)c1 [Compound 40, 1-N-[4-[7-(5-Cyanopyridin-3-yl)quinolin-4-yl]oxyphenyl]-1-N′-(4-fluorophenyl)cyclopropane-1,1-dicarboxamide]
